The results in this text go back to patent US9040530B2, “1,2,4-triazine-6-carboxamide kinase inhibitors” (Portola Pharmaceuticals, Inc., priority 2012, dated 2015).

Structures are written as SMILES. Bounds are passed on as bounds.

The assay has as its target T1, full length active recombinant SYK enzyme (Homo sapiens, UniProt P43405).
T1 construct: full length active recombinant SYK enzyme (Millipore, Calif.); purchased Millipore
Kind of assay: Inhibition of Syk tyrosine phosphorylation activity (LANCE TR-FRET kinase assay). It is filed as biochemical. Particulars: 1 nM active SYK enzyme, 550 nM SYK-substrate, 100 μM ATP, 1 hour at room temperature.
Consider `NC(=O)c1nnc(N[C@@H]2CCNC2)nc1Nc1cccc(-c2ncccn2)c1` [Example 70, (R)-5-((3-(pyrimidin-2-yl)phenyl)amino)-3-(pyrrolidin-3-ylamino)-1,2,4-triazine-6-carboxamide], for which the 50% inhibitory concentration (IC50) lay within 10 to 100 nM.
On to `CC[C@@H](Nc1nnc(C(N)=O)c(Nc2ccccc2)n1)C(N)=O` [Example 99, (R)-3-((1-amino-1-oxobutan-2-yl)amino)-5-(phenylamino)-1,2,4-triazine-6-carboxamide], for which the IC50 fell in the range of 100 to 1000 nM.
As to `CC[C@@H](Nc1nnc(C(N)=O)c(Nc2ccc(C)c(C#N)c2)n1)C(N)=O` [Example 234, (R)-3-((1-amino-1-oxobutan-2-yl)amino)-5-((3-cyano-4-methylphenyl)amino)-1,2,4-triazine-6-carboxamide], the IC50 was 100 to 1000 nM.
Next, `NC(=O)c1nnc(N[C@@H]2CCCC[C@@H]2N)nc1Nc1ccc2nccn2c1` [Example 44, 3-(((1R,2S)-2-aminocyclohexyl)amino)-5-(imidazo[1,2-a]pyridin-6-ylamino)-1,2,4-triazine-6-carboxamide]: 10 to 100 nM; `CC[C@@H](Nc1nnc(C(N)=O)c(Nc2ccc(OC)c(C(F)(F)F)c2)n1)C(N)=O` [Example 112, (R)-3-((1-amino-1-oxobutan-2-yl)amino)-5-((4-methoxy-3-(trifluoromethyl)phenyl)amino)-1,2,4-triazine-6-carboxamide]: 100 to 1000 nM; `NC(=O)c1nnc(N[C@@H]2CCCC[C@@H]2N)nc1Nc1ccc2ncccc2c1` [Example 47, 3-(((1R,2S)-2-aminocyclohexyl)amino)-5-(quinolin-6-ylamino)-1,2,4-triazine-6-carboxamide]: 1 to 10 nM.
In the case of `CC[C@@H](Nc1nnc(C(N)=O)c(Nc2ccc3cn[nH]c3c2)n1)C(N)=O` [Example 128, (R)-5-((1H-indazol-6-yl)amino)-3-((1-amino-1-oxobutan-2-yl)amino)-1,2,4-triazine-6-carboxamide], the IC50 lay in the range of 1 to 10 nM.
For `Cc1ccc(Nc2nc(N[C@@H]3CCCC(F)(F)[C@@H]3N)nnc2C(N)=O)cc1` [Example 167, 3-(((1R,2R)-2-amino-3,3-difluorocyclohexyl)amino)-5-(p-tolylamino)-1,2,4-triazine-6-carboxamide], the half-maximal inhibitory concentration (IC50) is 10 to 100 nM.
`COc1cc(Nc2nc(N[C@@H]3CCCC[C@@H]3N)nnc2C(N)=O)ccn1` [Example 68, 3-(((1R,2S)-2-aminocyclohexyl)amino)-5-((2-methoxypyridin-4-yl)amino)-1,2,4-triazine-6-carboxamide]: the IC50 fell in the range of 1 to 10 nM.
On to `CC[C@@H](Nc1nnc(C(N)=O)c(Nc2ccc3scnc3c2)n1)C(N)=O` [Example 246, (R)-3-((1-amino-1-oxobutan-2-yl)amino)-5-(benzo[d]thiazol-5-ylamino)-1,2,4-triazine-6-carboxamide], for which the IC50 lay within 10 to 100 nM.
Next, `CC[C@@H](Nc1nnc(C(N)=O)c(Nc2ccc3cc[nH]c3c2)n1)C(N)=O` [Example 102, (R)-5-((1H-indol-6-yl)amino)-3-((1-amino-1-oxobutan-2-yl)amino)-1,2,4-triazine-6-carboxamide]: 1 to 10 nM; `CC(C)C[C@@H](Nc1nnc(C(N)=O)c(Nc2cccc(-c3ncccn3)c2)n1)C(N)=O` [Example 77, (R)-3-((1-amino-4-methyl-1-oxopentan-2-yl)amino)-5-((3-(pyrimidin-2-yl)phenyl)amino)-1,2,4-triazine-6-carboxamide]: 10 to 100 nM.
For `Cn1ccc2c(Nc3nc(N[C@@H]4CCNC4)nnc3C(N)=O)cccc21` [Example 90, (R)-5-((1-methyl-1H-indol-4-yl)amino)-3-(pyrrolidin-3-ylamino)-1,2,4-triazine-6-carboxamide], the IC50 lay in the range of 1 to 10 nM.
`Cc1ccc(Nc2nc(N[C@H](CC3CC3)C(N)=O)nnc2C(N)=O)cc1` [Example 226, (R)-3-((1-amino-3-cyclopropyl-1-oxopropan-2-yl)amino)-5-(p-tolylamino)-1,2,4-triazine-6-carboxamide]: the IC50 was in the range of 10 to 100 nM.
For the molecule `NC(=O)c1nnc(N[C@@H]2CCCC[C@@H]2N)nc1Nc1ccc2cn[nH]c2c1` [Example 126, 5-((1H-indazol-6-yl)amino)-3-(((1R,2S)-2-aminocyclohexyl)amino)-1,2,4-triazine-6-carboxamide], the IC50 was less than 1 nM.
As to `Cn1cc(C#N)c2ccc(Nc3nc(N[C@@H]4CCCC(F)(F)[C@@H]4N)nnc3C(N)=O)cc21` [Example 173, 3-(((1R,2R)-2-amino-3,3-difluorocyclohexyl)amino)-5-((3-cyano-1-methyl-1H-indol-6-yl)amino)-1,2,4-triazine-6-carboxamide], the half-maximal inhibitory concentration (IC50) is 10 to 100 nM.
`NC(=O)c1nnc(N[C@@H]2CCCC[C@@H]2N)nc1Nc1cnn2ccccc12` [Example 35, 3-(((1R,2S)-2-aminocyclohexyl)amino)-5-(pyrazolo[1,5-a]pyridin-3-ylamino)-1,2,4-triazine-6-carboxamide]: the IC50 lay in the range of 1 to 10 nM.
`CC[C@@H](Nc1nnc(C(N)=O)c(Nc2ccc(OC)c(Cl)c2)n1)C(N)=O` [Example 174, (R)-3-((1-amino-1-oxobutan-2-yl)amino)-5-((3-chloro-4-methoxyphenyl)amino)-1,2,4-triazine-6-carboxamide]: the IC50 fell in the range of 10 to 100 nM.
Turning to `NC(=O)c1nnc(N[C@@H]2CCCC(F)(F)[C@@H]2N)nc1Nc1csc2ncccc12` [Example 38, 3-(((1R,2R)-2-amino-3,3-difluorocyclohexyl)amino)-5-(thieno[2,3-b]pyridin-3-ylamino)-1,2,4-triazine-6-carboxamide], the IC50 was in the range of 10 to 100 nM.
To `NC(=O)c1nnc(N[C@@H]2CCCC[C@@H]2N)nc1Nc1cccc(-c2ncccn2)c1` [Example 1, 3-((1R,2S)-2-aminocyclohexylamino)-5-(3-(pyrimidin-2-yl)phenylamino)-1,2,4-triazine-6-carboxamide] belongs 1 to 10 nM; to `Cc1ccc(Nc2nc(N[C@H](CC(F)(F)F)C(N)=O)nnc2C(N)=O)cc1` [Example 144, (R)-3-((1-amino-4,4,4-trifluoro-1-oxobutan-2-yl)amino)-5-(p-tolylamino)-1,2,4-triazine-6-carboxamide], 10 to 100 nM.
With `CC[C@@H](Nc1nnc(C(N)=O)c(Nc2ccc(Cl)c(Cl)c2)n1)C(N)=O` [Example 235, (R)-3-((1-amino-1-oxobutan-2-yl)amino)-5-((3,4-dichlorophenyl)amino)-1,2,4-triazine-6-carboxamide], the half-maximal inhibitory concentration (IC50) fell in the range of 10 to 100 nM.
To `Cn1ccc2c(Nc3nc(N[C@@H](C(N)=O)C(C)(C)C)nnc3C(N)=O)cccc21` [Example 93, (R)-3-((1-amino-3,3-dimethyl-1-oxobutan-2-yl)amino)-5-((1-methyl-1H-indol-4-yl)amino)-1,2,4-triazine-6-carboxamide] belongs 100 to 1000 nM; to `Cc1cc(Nc2nc(N[C@@H]3CCOC[C@@H]3N)nnc2C(N)=O)sn1` [Example 142, 3-(((3R,4R)-3-aminotetrahydro-2H-pyran-4-yl)amino)-5-((3-methylisothiazol-5-yl)amino)-1,2,4-triazine-6-carboxamide], 10 to 100 nM; to `CC(C)[C@@H](Nc1nnc(C(N)=O)c(Nc2ccc3ncccc3c2)n1)C(N)=O` [Example 52, (R)-3-((1-amino-3-methyl-1-oxobutan-2-yl)amino)-5-(quinolin-6-ylamino)-1,2,4-triazine-6-carboxamide], 10 to 100 nM.
As for `NC(=O)c1nnc(N[C@@H]2CCCC[C@@H]2N)nc1Nc1cc(F)cc(Cl)c1` [Example 21, 3-(((1R,2S)-2-aminocyclohexyl)amino)-5-((3-chloro-5-fluorophenyl)amino)-1,2,4-triazine-6-carboxamide], the IC50 was in the range of 1 to 10 nM.
Next, `NC(=O)c1nnc(N[C@@H]2CCCC[C@@H]2N)nc1Nc1ccc(N2CCOCC2=O)cc1` [Example 34, 3-(((1R,2S)-2-aminocyclohexyl)amino)-5-((4-(3-oxomorpholino)phenyl)amino)-1,2,4-triazine-6-carboxamide]: 100 to 1000 nM; `NC(=O)c1nnc(N[C@@H]2CCCC[C@@H]2N)nc1Nc1cccc2ncccc12` [Example 46, 3-(((1R,2S)-2-aminocyclohexyl)amino)-5-(quinolin-5-ylamino)-1,2,4-triazine-6-carboxamide]: 1 to 10 nM; `NC(=O)c1nnc(N[C@@H]2CCCC(F)(F)[C@@H]2N)nc1Nc1cccc(Cl)c1` [Example 201, 3-(((1R,2R)-2-amino-3,3-difluorocyclohexyl)amino)-5-((3-chlorophenyl)amino)-1,2,4-triazine-6-carboxamide]: 10 to 100 nM.
For `NC(=O)c1nnc(N[C@@H]2CCCC(F)(F)[C@@H]2N)nc1Nc1cccc(-c2ncco2)c1` [Example 130, 3-(((1R,2R)-2-amino-3,3-difluorocyclohexyl)amino)-5-((3-(oxazol-2-yl)phenyl)amino)-1,2,4-triazine-6-carboxamide], the half-inhibitory concentration (IC50) was more than 1000 nM.
On to `NC(=O)c1nnc(N[C@@H]2CCCC(F)(F)[C@@H]2N)nc1Nc1ccc(C(F)(F)F)cc1` [Example 239, 3-(((1R,2R)-2-amino-3,3-difluorocyclohexyl)amino)-5-((4-(trifluoromethyl)phenyl)amino)-1,2,4-triazine-6-carboxamide], for which the IC50 lay within 10 to 100 nM.
Turning to `NC(=O)c1nnc(N)nc1Nc1cccc(-c2ncccn2)c1` [Example 92, 3-amino-5-((3-(pyrimidin-2-yl)phenyl)amino)-1,2,4-triazine-6-carboxamide], the concentration for half-maximal inhibition (IC50) is more than 1000 nM.
To `Cc1ccc(Nc2nc(N[C@@H]3CCOC[C@@H]3N)nnc2C(N)=O)cc1` [Example 9, 3-(((3R,4R)-3-aminotetrahydro-2H-pyran-4-yl)amino)-5-(p-tolylamino)-1,2,4-triazine-6-carboxamide] belongs 10 to 100 nM.
On to `NC(=O)c1nnc(N[C@@H]2CCCC[C@@H]2N)nc1Nc1ccc(C(F)(F)F)cc1` [Example 168, 3-(((1R,2S)-2-aminocyclohexyl)amino)-5-((4-(trifluoromethyl)phenyl)amino)-1,2,4-triazine-6-carboxamide], for which the IC50 was 10 to 100 nM.
